Assay results reported in ChEMBL document CHEMBL4052701, “Bioactive new withanolides from the cultured soft coral Sinularia brassica” (Bioorg Med Chem Lett, 2017).
pIC50: −log10 of the molar value.

Tests used:
P388 = test: Cytotoxicity against mouse P388 cells incubated for 72 hrs by alamar blue assay; type: functional, cell-based; conditions: P388, 72 h
MOLT-4 = test: Cytotoxicity against human MOLT4 cells incubated for 72 hrs by alamar blue assay; type: functional, cell-based; conditions: MOLT-4, 72 h
K562 = test: Cytotoxicity against human K562 cells incubated for 72 hrs by alamar blue assay; type: functional, cell-based; conditions: K562, 72 h
HT-29 = test: Cytotoxicity against human HT-29 cells incubated for 72 hrs by alamar blue assay; type: functional, cell-based; conditions: HT-29, 72 h
Neutrophil [1] = test: Antiinflammatory activity in human neutrophils assessed as inhibition of fMLP/CB-induced superoxide anion generation by measuring superoxide […] dismutase inhibitable reduction of ferricytochrome c incubated for 5 mins; type: functional, cell-based
Neutrophil [2] = test: Antiinflammatory activity in human neutrophils assessed as inhibition of fMLP/CB-induced superoxide anion generation by measuring superoxide […] dismutase inhibitable reduction of ferricytochrome c at 10 uM incubated for 5 mins; type: functional
Neutrophil [3] = test: Antiinflammatory activity in human neutrophils assessed as inhibition of fMLP/CB-induced elastase release incubated for 5 mins in presence of MeO-Suc-Ala-Ala-Pro-Val-p-nitroanilide; type: functional, cell-based
Neutrophil [4] = test: Antiinflammatory activity in human neutrophils assessed as inhibition of fMLP/CB-induced elastase release at 10 uM incubated for 5 mins in presence of MeO-Suc-Ala-Ala-Pro-Val-p-nitroanilide; type: functional

| SMILES | pIC50 (P388) | pIC50 (MOLT-4) | pIC50 (K562) | pIC50 (HT-29) | pIC50 (Neutrophil [1]) | inhibition at 10 µM (Neutrophil [2]) | pIC50 (Neutrophil [3]) | inhibition at 10 µM (Neutrophil [4]) |
| --- | --- | --- | --- | --- | --- | --- | --- | --- |
| C[C@H]1[C@H]2[C@H](C[C@H]3[C@@H]4CCC5=CC(=O)C=C[C@]5(C)[C@H]4CC[C@]23C)O[C@@]2(OC(=O)[C@@H](C)[C@H]2C)[C@H]1O | 4.74 | 4.86 | 4.76 | 4.69 | < 5.00 | 34.3% | < 5.00 | 11.4% |
| C[C@@H]1[C@H]([C@H]2OC(=O)[C@@H](C)[C@H]2C)O[C@H]2C[C@H]3[C@@H]4CCC5=CC(=O)C=C[C@]5(C)[C@H]4CC[C@]3(C)[C@@H]12 | 4.52 | 4.92 | 5.06 | 4.73 | 5.46 | 87.7% | 5.85 | 114% |
| C[C@@H]([C@H]1CC[C@H]2[C@@H]3CCC4=CC(=O)C=C[C@]4(C)[C@H]3CC[C@]12C)[C@H]1C[C@H](C)[C@@H](C)C(=O)O1 | < 4.40 | < 4.40 | < 4.40 | < 4.40 | < 5.00 | 26.3% | < 5.00 | 25% |
| C[C@H]1[C@H]([C@@]2(O)O[C@H]3C[C@H]4[C@@H]5CCC6=CC(=O)C=C[C@]6(C)[C@H]5CC[C@]4(C)[C@H]3[C@@H]2C)OC(=O)[C@@H]1C | 4.73 | 4.76 | 4.90 | 4.95 | < 5.00 | 32.1% | < 5.00 | 9.5% |
| C[C@H]1[C@H]2[C@H](C[C@H]3[C@@H]4CCC5=CC(=O)C=C[C@]5(C)[C@H]4CC[C@]23C)O[C@]2(OC(=O)[C@H](C)[C@H]2C)[C@H]1O | 4.40 | 4.54 | 4.53 | 4.61 | < 5.00 | 14.4% | < 5.00 | 32.4% |
| C[C@@H]1C(=O)[C@@]2(OC(=O)[C@H](C)[C@H]2C)O[C@H]2C[C@H]3[C@@H]4CCC5=CC(=O)C=C[C@]5(C)[C@H]4CC[C@]3(C)[C@H]21 | < 4.40 | < 4.40 | < 4.40 | < 4.40 | < 5.00 | 17.3% | < 5.00 | 12.5% |
| O=c1[nH]cc(F)c(=O)[nH]1 [FLUOROURACIL] | 5.24 | 5.21 | 4.52 | 5.14 |  |  |  |  |
| CC[C@H](Nc1ncnc2[nH]cnc12)c1nc2cccc(F)c2c(=O)n1-c1ccccc1 [IDELALISIB] |  |  |  |  | 7.15 | 103% | 6.52 | 99.6% |
